Measured values published in patent US5622955A, “Methods of treating cryptosporidium parvum” (The University of North Carolina at Chapel Hill, priority 1995, dated 1997).
Where a name gives a salt, the structure may show the parent alone. Read-outs that look alike come from different tables or passages of the source.

Key:
[1] = tested on: Pneumocystis carinii; test: In vivo Activity Against Pneumocystis carinii in Rats; details: saline = 100%
[2] = tested on: G. lamblia; test: 50% inhibitory concentration against G. lamblia; format: cell-based
Text: ^d 50% Inhibitory concentration against G. lamblia, P. carinii
topoisomerase. See, Bell, et al., supra.

[3] = tested on: poly dA.dT; test: DNA binding: increase in thermal melting of poly dA.dT
Text: ^a Increase in thermal melting of poly dA.dT. See, W. Wilson, et al.,

[4] = tested on: Pneumocystis carinii; details: rat, in vivo
[5] = molecular target: T1, topoisomerase II isolated from P. carinii (Pneumocystis carinii, UniProt A0A0W4ZKQ4); test: Inhibition of topoisomerase II isolated from P. carinii; format: biochemical
T1 construct: homodimer
T1 sequence (A0A0W4ZKQ4 1-1493): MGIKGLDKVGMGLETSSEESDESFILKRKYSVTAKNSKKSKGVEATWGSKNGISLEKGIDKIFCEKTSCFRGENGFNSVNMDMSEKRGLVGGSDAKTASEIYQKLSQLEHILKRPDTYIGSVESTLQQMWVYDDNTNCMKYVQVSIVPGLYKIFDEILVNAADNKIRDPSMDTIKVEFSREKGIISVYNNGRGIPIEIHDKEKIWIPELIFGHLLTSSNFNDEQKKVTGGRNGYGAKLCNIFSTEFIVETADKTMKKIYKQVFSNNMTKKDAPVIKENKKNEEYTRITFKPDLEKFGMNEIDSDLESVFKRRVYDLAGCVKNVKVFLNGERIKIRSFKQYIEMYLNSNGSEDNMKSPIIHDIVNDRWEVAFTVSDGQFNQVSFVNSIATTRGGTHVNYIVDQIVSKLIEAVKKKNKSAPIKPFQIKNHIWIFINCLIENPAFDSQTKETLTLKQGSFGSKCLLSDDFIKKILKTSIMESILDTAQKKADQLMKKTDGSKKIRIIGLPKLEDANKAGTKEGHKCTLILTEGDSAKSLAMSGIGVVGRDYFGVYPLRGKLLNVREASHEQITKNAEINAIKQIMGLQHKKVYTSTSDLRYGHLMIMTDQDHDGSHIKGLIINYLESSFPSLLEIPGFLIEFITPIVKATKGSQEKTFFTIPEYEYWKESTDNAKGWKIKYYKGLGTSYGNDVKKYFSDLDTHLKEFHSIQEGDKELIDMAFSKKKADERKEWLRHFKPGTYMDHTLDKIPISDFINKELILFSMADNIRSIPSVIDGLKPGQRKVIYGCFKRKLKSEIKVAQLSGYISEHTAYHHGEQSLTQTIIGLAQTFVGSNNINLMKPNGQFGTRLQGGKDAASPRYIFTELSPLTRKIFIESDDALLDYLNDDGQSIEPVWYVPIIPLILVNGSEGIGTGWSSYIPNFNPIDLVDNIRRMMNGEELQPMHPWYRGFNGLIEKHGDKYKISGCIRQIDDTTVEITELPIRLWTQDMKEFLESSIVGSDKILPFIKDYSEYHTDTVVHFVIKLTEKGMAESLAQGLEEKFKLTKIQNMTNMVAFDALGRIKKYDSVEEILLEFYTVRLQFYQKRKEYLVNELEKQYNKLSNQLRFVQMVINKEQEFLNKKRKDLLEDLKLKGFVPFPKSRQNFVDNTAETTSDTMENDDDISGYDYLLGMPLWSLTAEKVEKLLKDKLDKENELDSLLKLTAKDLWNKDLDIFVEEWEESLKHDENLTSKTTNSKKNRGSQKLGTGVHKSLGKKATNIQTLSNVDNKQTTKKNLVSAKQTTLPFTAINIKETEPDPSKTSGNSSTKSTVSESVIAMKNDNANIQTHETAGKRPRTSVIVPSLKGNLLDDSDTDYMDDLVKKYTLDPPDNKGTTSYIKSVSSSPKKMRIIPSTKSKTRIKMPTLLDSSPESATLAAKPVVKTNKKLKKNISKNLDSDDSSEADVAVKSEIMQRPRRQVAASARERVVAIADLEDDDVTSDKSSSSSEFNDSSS
Text: ^c Inhibition of topoisomerase II isolated from P. carinii. See, C.
Dykstra, et al., J. Protozool. 38:78S (1991).

[6] = tested on: C. Parvum; test: Inihibition of C. Parvum; format: in vivo
[7] = Giardia duodenalis; read-out: G. lamblia IC50

Row | IC50 [2, 7] [nM] | Compound | cyst/g Lung ([1]; 2.5 mg/Kg per day) [%] | DNA binding (Increase in thermal melting of poly dA.dT) [3] | cyst/g Lung ([1]; 5.0 mg/Kg per day) [%] | Toxicity ([4]; 5 mg/kg/day) | other results
1 | 790 | c1cc(-c2ccc(C3=NCCCN3)cc2)nc(-c2ccc(C3=NCCCN3)cc2)n1 [Compound 3, 2,4Bis[(4tetrahydropyrimmidinyl-2-yl)phenyl]pyrimidine hydrochloride] | 85.2 | 25 |  |  | 
2 | 36700 | COc1cc(C(=N)NC(C)C)ccc1-c1ccnc(-c2ccc(C(=N)NC(C)C)cc2)n1 [Compound 5, 2-(4-[N-i-propylguanyl]phenyl)-4-(2-methoxy-4-[N-i-propylguanyl]phenyl)pyrimidine] | 1.0 | 13.9 |  |  | Topoisomerase P. Carinii (Inhibition of topoisomerase II isolated from P. carinii) [5]: no
3 | 2000 | c1ccc(-c2nccc(-c3ccc(C4=NCCN4)cc3)n2)cc1 [Compound 4, 2phenyl-4-[4(imidazolin-2-yl)phenyl]pyrimidine hydrochloride] |  |  | 21.1 |  | 

Continued, molecule first:

Row | Compound | IC50 [2, 7] [nM] | cyst/g Lung ([1]; 2.5 mg/Kg per day) [%] | DNA binding (Increase in thermal melting of poly dA.dT) [3] | cyst/g Lung ([1]; 5.0 mg/Kg per day) [%] | Toxicity ([4]; 5 mg/kg/day) | other results
4 | c1cc(-c2ccc(C3=NCCN3)cc2)nc(-c2ccc(C3=NCCN3)cc2)n1 [Compound 2, 2,4Bis[(4imidazolin-2-yl)phenyl]pyrimidine hydrochloride] | 3000 |  |  | 2.4 | 0 | 
5 | Cl.N=C(N)c1ccc(-c2ccnc(-c3ccc(C(=N)N)cc3)n2)cc1 [Compound 1, 2,4-Bis-(4-guanylphenyl)pyrimidine hydrochloride] | 2000 |  | 21.5 | 2.4 | 0 | cyst/g Lung ([1]; 10.0 mg/Kg per day): 0.8%; % efficacy ([6]; 0.1 mg/kg/day): 30%; % efficacy ([6]; 5 mg/kg/day): 68%; % efficacy ([6]; 25 mg/kg/day): 50%; Toxicity ([4]; 10 mg/kg/day): 1+
6 | N=C(N)c1ccc(OCCCCCOc2ccc(C(=N)N)cc2)cc1 [Pentamidine, reference compound] |  |  | 12.8 |  |  | IC50 ([2]; Giardia duodenalis, read-out: G. lamblia IC50): 2600 nM
